Assay results: patent US6943181B2, “Use of substituted gamma-lactone compounds as pharmaceutical preparations” (Grunenthal GmbH, priority 2001, dated 2005)

Molecular target: T1, nitrogen monoxide synthase (NO synthase) (Rattus norvegicus, UniProt P29476)
T1 construct: the supernatant was then decanted off and frozen in portions; from tissue; host or cells: rat cerebellum (homogenate, 20,000 g supernatant)
Assay: HTS-NOS assay (nitrogen monoxide synthase assay)
Type: biochemical
Settings: compound at 10 μM; enzyme preparation from rat cerebella; [3H]-arginine substrate
Text: This assay makes it possible to determine the percentage inhibition of NO synthase by a compound of the general formula I used according to the invention by measuring NOS activity on exposure to the compound. NO synthase is here mixed under suitable conditions together with radioactively labelled arginine and the particular compound of the general formula I. After termination of the NO formation reaction at a predetermined time, the quantity of unconverted arginine is directly or indirectly determined. […] This assay may be carried out at follows: • (a) Incubation of the NO synthase with labelled arginine as the substrate in a reaction vessel, • (b) Separation of the labelled arginine from the labelled citrulline optionally arising as a product of the enzymatic reaction at a time at which the concentration of citrulline is rising, • (c) Measurement of the quantity of arginine separated in each case.
Separation is performed by means of a filter plate membrane.
Radioactive arginine is used as the substrate in this HTS-NOS assay. Depending on the type of microtitre plate (MTP), the assay volume may be selected in the range between 25 μl and 250 μl. Depending on the enzyme source used, cofactors and coenzymes are added. The batches are incubated in this microtitre plate (assay MTP) according to step (a) at room temperature and, depending on the enzyme activity used (units), lasts between 5 and 60 minutes. On completion of incubation (step (a)), the plate is placed in a cell harvester, which is equipped with an MTP which has a cation exchange membrane as a filter bottom (filter MTP). All the batches from the assay MTP are transferred into this filter MTP and suction filtered through a cation exchange filter plate, a paper filter loaded with phosphate groups. The filter MTP is then washed with buffer or water. This procedure binds the remaining substrate arginine onto the cation exchanger, while the enzymatically formed radioactive citrulline is quantitatively eluted. Once the filter MTP has been dried and scintillation liquid added, the bound arginine can be counted in the scintillation counter. Low radioactivity indicates an uninhibited NOS reaction. An inhibited enzyme reaction means that the radioactive arginine has not been converted. This means that there is a high level of radioactivity on the filter.
• Arginine, L-[2,3,4-^3H]-monohydrochloride; item no. […] The pH value of the buffer was adjusted to 7.4 at 25° C. • Washing medium: H2O Enzyme Preparation
Rat cerebella were used as the starting tissue. The animals were stunned and killed, the brain tissue, the cerebellum, was dissected out, 1 ml of enzyme preparation buffer (4° C.) was added per cerebellum, and the tissue was disrupted for 1 min at 6000 rpm in a Polytron homogeniser. The mixture was then centrifuged at 4° C. for 15 min at 20,000 g, and the supernatant was then decanted off and frozen in portions at −80° C. (discarding the precipitate).
96-Well MTPs with a well capacity of ≦250 μl were used Pipetting sequence: see table 1:
Once the pipetting operation was complete, a lid was laid on top of this MTP (assay MTP). Incubation at 25° C. (room temperature (RT)) for 5-60 min, depending on the quantity and activity of the enzyme used.
The contents of the assay MTP were then transferred with the assistance of a 96 well cell harvester into a 96 well cation exchange MTP (filter MTP) and suction filtered. A single washing with […] of H2O (from a trough) was then performed.
The plate was then dried for 1 h at 60° C. in a drying cabinet. The bottom of the filter MTP was then carefully sealed from beneath with a “back seal”. 35 μl of scintillating material were then pipetted into each well. The top of the plate was also sealed with a “top seal”. After 1 hour's waiting time, the plate was assessed on the β-counter.

Compound	NOS (% inhibition) [%]	inhibition at 10 µM [%]
3-(5-Bromo-6-methyl-pyridin-2-ylamino)-5-methyl-5-naphthalen-l-yl-dihydro-furan-2-one [Example 53]	40	–
Cc1ccc(C2(C)CC(Nc3ccc4cccc(O)c4n3)C(=O)O2)c(C)c1 (centres unmarked) [Example 1, 5-(2,4-Dimethyl-phenyl)-3-(8-hydroxy-quinolin-2-ylamino)-5-methyl-dihydro-furan-2-one]	–	40
Cc1cc(C)nc(NC2CC(C)(c3ccc(C)c(C)c3)OC2=O)c1 (centres unmarked) [Example 2, 5-(3,4-Dimethyl-phenyl)-3-(4,6-dimethyl-pyridin-2-ylamino)-5-methyl-dihydro-furan-2-one]	–	45
Cc1cc(C)nc(NC2CC(C)(c3ccc(C)cc3C)OC2=O)c1 (centres unmarked) [Example 3, 5-(2,4-Dimethyl-phenyl)-3-(4,6-dimethyl-pyridin-2-ylamino)-5-methyl-dihydro-furan-2-one]	–	42
Cc1cc(C)nc(NC2CC(C)(c3ccc(C4CCCCC4)cc3)OC2=O)c1 (centres unmarked) [Example 4, 5-(4-Cyclohexyl-phenyl)-3-(4,6-dimethyl-pyridin-2-ylamino)-5-methyl-dihydro-furan-2-one]	–	45
Cc1cc(C)cc(C2(C)CC(Nc3cc(C)cc(C)n3)C(=O)O2)c1 (centres unmarked) [Example 5, 5-(3,5-Dimethyl-phenyl)-3-(4,6-dimethyl-pyridin-2-ylamino)-5-methyl-dihydro-furan-2-one]	–	58
Cc1ccnc(NC2CC(C)(c3ccc(C)c(C)c3)OC2=O)c1 (centres unmarked) [Example 6, 5-(3,4-Dimethyl-phenyl)-5-methyl-3-(4-methyl-pyridin-2-ylamino)-dihydro-furan-2-one]	–	40
Cc1ccnc(NC2CC(C)(c3ccc(C)cc3C)OC2=O)c1 (centres unmarked) [Example 7, 5-(2,4-Dimethyl-phenyl)-5-methyl-3-(4-methyl-pyridin-2-ylamino)-dihydro-furan-2-one]	–	45
Cc1ccnc(NC2CC(C)(c3ccc(C4CCCCC4)cc3)OC2=O)c1 (centres unmarked) [Example 8, 5-(4-Cyclohexyl-phenyl)-5-methyl-3-(4-methyl-pyridin-2-ylamino)-dihydro-furan-2-one]	–	41
Cc1cccc(C2(C)CC(Nc3ccc4ccccc4n3)C(=O)O2)c1 (centres unmarked) [Example 9, 5-Methyl-3-(quinolin-2-ylamino)-5-m-tolyl-dihydro-furan-2-one]	–	51
Cc1ccc(C2(C)CC(Nc3cc(C)cc(C)n3)C(=O)O2)cc1 (centres unmarked) [Example 10, 3-(4,6-Dimethyl-pyridin-2-ylamino)-5-methyl-5-p-tolyl-dihydro-furan-2-one]	–	61
Cc1cccc(C2(C)CC(Nc3cc(C)cc(C)n3)C(=O)O2)c1 (centres unmarked) [Example 11, 3-(4,6-Dimethyl-pyridin-2-ylamino)-5-methyl-5-m-tolyl-dihydro-furan-2-one]	–	81
CCOc1ccc(C2(C)CC(Nc3cc(C)cc(C)n3)C(=O)O2)cc1 (centres unmarked) [Example 12, 3-(4,6-Dimethyl-pyridin-2-ylamino)-5-(4-ethoxy-phenyl)-5-methyl-dihydro-furan-2-one]	–	59
Cc1cnc(NC2CC(C)(c3ccc(C#N)cc3)OC2=O)c(Br)c1 (centres unmarked) [Example 13, 4-[4-(3-Bromo-5-methyl-pyridin-2-ylamino)-2-methyl-5-oxo-tetrahydro-furan-2-yl]-benzonitrile]	–	44
Cc1cnc(NC2CC(C)(c3ccc(C(C)(C)C)cc3)OC2=O)c(Br)c1 (centres unmarked) [Example 14, 3-(3-Bromo-5-methyl-pyridin-2-ylamino)-5-(4-tert-butyl-phenyl)-5-methyl-dihydro-furan-2-one]	–	48
CCCc1cccc(NC2CC(C)(c3ccc(C(C)(C)C)cc3)OC2=O)n1 (centres unmarked) [Example 15, 5-(4-tert-Butyl-phenyl)-5-methyl-3-(6-propyl-pyridin-2-ylamino)-dihydro-furan-2-one]	–	45
Cc1ccnc(NC2CC(C)(c3ccc(C(C)(C)C)cc3)OC2=O)c1[N+](=O)[O-] (centres unmarked) [Example 16, 5-(4-tert-Butyl-phenyl)-5-methyl-3-(4-methyl-3-nitro-pyridin-2-ylamino)-dihydro-furan-2-one]	–	47
